Our source for the GI50 and TGI values is PubChem BioAssay (NCI).

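Briefly, cells in 96-well plates were exposed to five compound concentrations for 48 h, and endpoints were estimated by linear interpolation. At the GI50, growth is halved. Definition used: TGI = concentration required for complete inhibition of growth.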

Common to all, as to assay: DTP human tumour cell line panel, 48 h
Assay [1] concerns UACC-62 melanoma.
Assay [2] deals with HCT-15 colon.
Assay [3] relates to BT-549 breast.
In assay [4] the test system is SF-295 CNS.
Assay [5] concerns COLO 205 colon.
For assay [6], the system named is CCRF-CEM leukemia.
In assay [7] the test system is HCT-116 colon.
The test system of assay [8] is NCI-H226 lung.
Assay [9] concerns NCI/ADR-RES ovarian.
The subject of assay [10] is OVCAR-4 ovarian.

As for `COC(=O)C1OC(O[C@H]2CCC3(C)C(CCC4(C)C3CC=C3C5CC(C)(C)CCC5(C(=O)O)CC[C@]34C)C2(C)C)C(O)C(OC2OC(CO)C(O)C(O)C2O)C1O` (stereo partly specified), the GI50 in assay [1] was 6.23 µM; in assay [2], 6.57 µM; in assay [3] it was 6.93 µM; in [4], 11.8 µM; in assay [5], 8.64 µM; in [6], 5.79 µM. The GI50 in assay [7] was 6.39 µM; in [8], 6.18 µM; in assay [9], 7.24 µM. The TGI is 11.7 µM in [1]; 13.2 µM in assay [2]; 15 µM in [3]; > 33.3 µM in [4]; 25.3 µM in assay [5]; 13.1 µM in assay [6]. The concentration for total growth inhibition (TGI) in [7] was 11.5 µM; in assay [8], 12.2 µM; in assay [9], 13.5 µM.

`N#Cc1c(-c2cccs2)c2c(=S)[nH]c(=S)[nH]c2[nH]c1=S`: the GI50 was 36.3 µM in assay [1]; 37 µM in [2]; 23.5 µM in assay [3]; 46.5 µM in [4]; 28.8 µM in [5]; 49.5 µM in [7]. The results for the GI50 in assay [8], in assay [9] and in assay [10] were 37.2 µM, 62 µM and 53 µM, respectively. Also, the TGI is > 100 µM in [1]; > 100 µM in [2]; 56.2 µM in assay [3]; > 100 µM in assay [4]; > 100 µM in [5]; > 100 µM in assay [7]. The TGI in assay [8] is > 100 µM; in [9] it was 99.3 µM; in [10], > 100 µM.

For the compound `CCOc1ccc(S(=O)(=O)/N=C2\C=C(SCC(=O)O)C(=O)c3ccccc32)cc1`, the GI50 in assay [1] is 1.99 µM; in assay [2] it was 4.77 µM; in [3] it was 4.66 µM; in [4], 13 µM; in assay [5], 3.68 µM; in assay [7] it was 2.67 µM. Besides, the figures for the GI50 in [8], in assay [9] and in assay [10] were 21.7 µM, 3.26 µM and 2.16 µM, respectively. The TGI amounted to 3.8 µM in [1]; 17.2 µM in assay [2]; 15 µM in assay [3]; 30.2 µM in [4]; 14 µM in [5]; 10.3 µM in assay [7]. The TGI in assay [8] stood at 50.6 µM; in assay [9] it was 13.5 µM; in assay [10] it was 6.31 µM.

Take `COc1ccc(/C=C/C=C(/C#N)C(N)=S)cc1`: the GI50 in [1] is 19.3 µM; in [2] it was 25.4 µM; in assay [3], 30.1 µM; in [4] it was 31 µM; in assay [5], 20.9 µM; in [7], 15.6 µM. Moreover, the values for the GI50 in [8] and in assay [10] were 55.7 µM and 27.9 µM, respectively. In addition, the TGI in assay [1] was 37.9 µM; in [2] it was 82.8 µM; in [3], > 100 µM; in assay [4], > 100 µM; in assay [5], 50.7 µM; in assay [7], 31 µM. Besides, the TGI in [8] and in assay [10] was > 100 µM each time.

For `O=C(/C=C/c1ccc(Cl)cc1)c1ccc(Cl)cc1Cl`, the GI50 was 1.28 µM in assay [1]; 6.4 µM in [2]; 7.44 µM in assay [3]; 10.6 µM in [4]; 12.1 µM in assay [5]; 4.74 µM in assay [7]. Besides, the figures for the GI50 in [8], in assay [9] and in [10] were 9.41 µM, 0.331 µM and 6.14 µM, respectively. Further, the TGI in assay [1] is 12.4 µM; in assay [2], 15.3 µM; in [3], 14.8 µM; in assay [4], 21.4 µM; in assay [5], 30.8 µM; in assay [7], 33.5 µM. Further, the TGI worked out at 18.1 µM in assay [8], 15.5 µM in [9] and 14 µM in assay [10].

Turning to `CC(C)(C)OC(=O)n1cc(CNC(=S)Nc2ccccc2)c2ccccc21`, the GI50 was 13.3 µM in [1]; 10.9 µM in assay [2]; 14.5 µM in [3]; 6.04 µM in [4]; 11.3 µM in [5]; 15.2 µM in assay [7]. Moreover, the GI50 is 14.3 µM in assay [8], 10.8 µM in assay [9] and 49.4 µM in assay [10]. In addition, the concentration for total growth inhibition (TGI) turned out to be 26.1 µM in assay [1]; 22.9 µM in assay [2]; 32.7 µM in assay [3]; 23.4 µM in [4]; 23.4 µM in assay [5]; 30.1 µM in assay [7]. Also, the TGI in [8] was 30.7 µM; in [9] it was 22.7 µM; in assay [10], > 100 µM.
